Test system: patients with stable HFrEF
Assay: HFrEF study Part 2 (MAD Cohorts A-D): safety (TEAEs, serum troponin, ECG, Holter)
Type: in vivo, human
Description: Safety and efficacy assessments were conducted by measuring patients' vital signs and laboratory parameters; performing TTE to measure, e.g., systolic ejection time; performing electrocardiograms (e.g., 12-lead ECG), real-time ECG telemetry (e.g., at least 3-lead), and Holter ECG; and measuring levels of troponin (e.g., troponin I and/or troponin T) and […].
The following safety laboratory parameters were measured: (1) hematology parameters (CBC, including differential count, and platelet count); (2) serum chemistry parameters (e.g., sodium, potassium, chloride, bicarbonate, calcium, magnesium, urea, creatinine, ALP, ALT, AST, total bilirubin, glucose, and CPK); and (3) urinalysis parameters (e.g., pH, protein, glucose, leukocyte esterase, and blood).
Abnormal and/or rising troponin values (as per investigator's judgment and taking into account potential baseline troponin elevation frequently observed in heart failure) led to the patient being clinically evaluated for possible myocardial ischemia. […] The entire clinical context (e.g., signs, symptoms, new ECG changes, new troponin, and CK-MB abnormalities) was evaluated and correlated with any other relevant clinical findings, patient's medical history, and laboratory data to determine the clinical significance of the findings. Troponin results performed on Day 2 of Part 1 (SAD) and Day 10 of Part 2 (MAD) at a local lab were reviewed prior to the patient being discharged the next day.

[1] = Cohort A + C 75 mg BID (n = 15)
[2] = serum, MAD cohorts, Total Compound I (n = 22), ULN = 0.014
[3] = serum, MAD cohorts, Total Compound I (n = 30), ULN = 0.03

Cn1cc(S(=O)(=O)[C@@](C)(F)C2CCN(C(=O)Nc3ccon3)CC2)c(C(F)F)n1 [Compound I, (R)-4-(1-((3-(difluoromethyl)-1-methyl-1H-pyrazol-4-yl)sulfonyl)-1-fluoroethyl)-N-(isoxazol-3-yl)piperidine-1-carboxamide]
patients with troponin increase (50 mg): 2/9
patients with troponin increase (75 mg): 2/15
patients with troponin increase (100 mg): 3/6
Any AE leading to death, number of patients (%) [1]: 0 n (%)
Any TEAE leading to permanent treatment discontinuation, number of patients (%) [1]: 0 n (%)
Any TEAE, number of patients (%) [1]: 6 (40.0) n (%)
Any serious TEAE, number of patients (%) [1]: 1 (6.7) n (%)
TEAE: Abdominal discomfort [1]: 0 n (%)
TEAE: Alanine aminotransferase increased [1]: 1 (6.7) n (%)
TEAE: Anemia [1]: 1 (6.7) n (%)
TEAE: Application site erosion [1]: 0 n (%)
TEAE: Arthralgia [1]: 0 n (%)
TEAE: Arthropod bite [1]: 0 n (%)
TEAE: Back pain [1]: 0 n (%)
TEAE: Blood creatine phosphokinase increased [1]: 0 n (%)
TEAE: Blood creatinine increased [1]: 0 n (%)
TEAE: Cough [1]: 1 (6.7) n (%)
TEAE: Dermatitis contact [1]: 0 n (%)
TEAE: Dry eye [1]: 0 n (%)
TEAE: Fatigue [1]: 2 (13.3) n (%)
TEAE: Fluid overload [1]: 0 n (%)
TEAE: Gingival pain [1]: 0 n (%)
TEAE: Hyperkalemia [1]: 0 n (%)
TEAE: Infusion site erythema [1]: 0 n (%)
TEAE: Nasopharyngitis [1]: 0 n (%)
TEAE: Rash [1]: 0 n (%)
TEAE: Renal failure [1]: 0 n (%)
TEAE: Renal impairment [1]: 0 n (%)
TEAE: Testicular pain [1]: 0 n (%)
TEAE: Troponin increased [1]: 1 (6.7) n (%)
TEAE: Ventricular tachycardia [1]: 0 n (%)
Any AE leading to death, number of patients (%) (Cohort B 50 mg BID (n = 9)): 0 n (%)
Any TEAE leading to permanent treatment discontinuation, number of patients (%) (Cohort B 50 mg BID (n = 9)): 0 n (%)
Any TEAE, number of patients (%) (Cohort B 50 mg BID (n = 9)): 7 (77.8) n (%)
Any serious TEAE, number of patients (%) (Cohort B 50 mg BID (n = 9)): 0 n (%)
TEAE: Abdominal discomfort (Cohort B 50 mg BID (n = 9)): 1 (11.1) n (%)
TEAE: Alanine aminotransferase increased (Cohort B 50 mg BID (n = 9)): 1 (11.1) n (%)
TEAE: Anemia (Cohort B 50 mg BID (n = 9)): 0 n (%)
TEAE: Application site erosion (Cohort B 50 mg BID (n = 9)): 1 (11.1) n (%)
TEAE: Arthralgia (Cohort B 50 mg BID (n = 9)): 0 n (%)
TEAE: Arthropod bite (Cohort B 50 mg BID (n = 9)): 0 n (%)
TEAE: Back pain (Cohort B 50 mg BID (n = 9)): 0 n (%)
TEAE: Blood creatine phosphokinase increased (Cohort B 50 mg BID (n = 9)): 1 (11.1) n (%)
TEAE: Blood creatinine increased (Cohort B 50 mg BID (n = 9)): 0 n (%)
TEAE: Cough (Cohort B 50 mg BID (n = 9)): 0 n (%)
TEAE: Dermatitis contact (Cohort B 50 mg BID (n = 9)): 2 (22.2) n (%)
TEAE: Dry eye (Cohort B 50 mg BID (n = 9)): 0 n (%)
TEAE: Fatigue (Cohort B 50 mg BID (n = 9)): 0 n (%)
TEAE: Fluid overload (Cohort B 50 mg BID (n = 9)): 1 (11.1) n (%)
TEAE: Gingival pain (Cohort B 50 mg BID (n = 9)): 0 n (%)
TEAE: Hyperkalemia (Cohort B 50 mg BID (n = 9)): 1 (11.1) n (%)
TEAE: Infusion site erythema (Cohort B 50 mg BID (n = 9)): 1 (11.1) n (%)
TEAE: Nasopharyngitis (Cohort B 50 mg BID (n = 9)): 0 n (%)
TEAE: Rash (Cohort B 50 mg BID (n = 9)): 1 (11.1) n (%)
TEAE: Renal failure (Cohort B 50 mg BID (n = 9)): 0 n (%)
TEAE: Renal impairment (Cohort B 50 mg BID (n = 9)): 0 n (%)
TEAE: Testicular pain (Cohort B 50 mg BID (n = 9)): 0 n (%)
TEAE: Troponin increased (Cohort B 50 mg BID (n = 9)): 0 n (%)
TEAE: Ventricular tachycardia (Cohort B 50 mg BID (n = 9)): 1 (11.1) n (%)
Any AE leading to death, number of patients (%) (Cohort D 100 mg BID (n = 6)): 0 n (%)
Any TEAE leading to permanent treatment discontinuation, number of patients (%) (Cohort D 100 mg BID (n = 6)): 0 n (%)
Any TEAE, number of patients (%) (Cohort D 100 mg BID (n = 6)): 4 (66.7) n (%)
Any serious TEAE, number of patients (%) (Cohort D 100 mg BID (n = 6)): 0 n (%)
TEAE: Abdominal discomfort (Cohort D 100 mg BID (n = 6)): 0 n (%)
TEAE: Alanine aminotransferase increased (Cohort D 100 mg BID (n = 6)): 0 n (%)
TEAE: Anemia (Cohort D 100 mg BID (n = 6)): 0 n (%)
TEAE: Application site erosion (Cohort D 100 mg BID (n = 6)): 0 n (%)
TEAE: Arthralgia (Cohort D 100 mg BID (n = 6)): 0 n (%)
TEAE: Arthropod bite (Cohort D 100 mg BID (n = 6)): 1 (16.7) n (%)
TEAE: Back pain (Cohort D 100 mg BID (n = 6)): 0 n (%)
TEAE: Blood creatine phosphokinase increased (Cohort D 100 mg BID (n = 6)): 0 n (%)
TEAE: Blood creatinine increased (Cohort D 100 mg BID (n = 6)): 1 (16.7) n (%)
TEAE: Cough (Cohort D 100 mg BID (n = 6)): 0 n (%)
TEAE: Dermatitis contact (Cohort D 100 mg BID (n = 6)): 0 n (%)
TEAE: Dry eye (Cohort D 100 mg BID (n = 6)): 0 n (%)
TEAE: Fatigue (Cohort D 100 mg BID (n = 6)): 0 n (%)
TEAE: Fluid overload (Cohort D 100 mg BID (n = 6)): 0 n (%)
TEAE: Gingival pain (Cohort D 100 mg BID (n = 6)): 1 (16.7) n (%)
TEAE: Hyperkalemia (Cohort D 100 mg BID (n = 6)): 0 n (%)
TEAE: Infusion site erythema (Cohort D 100 mg BID (n = 6)): 0 n (%)
TEAE: Nasopharyngitis (Cohort D 100 mg BID (n = 6)): 0 n (%)
TEAE: Rash (Cohort D 100 mg BID (n = 6)): 0 n (%)
TEAE: Renal failure (Cohort D 100 mg BID (n = 6)): 0 n (%)
TEAE: Renal impairment (Cohort D 100 mg BID (n = 6)): 0 n (%)
TEAE: Testicular pain (Cohort D 100 mg BID (n = 6)): 0 n (%)
TEAE: Troponin increased (Cohort D 100 mg BID (n = 6)): 1 (16.7) n (%)
TEAE: Ventricular tachycardia (Cohort D 100 mg BID (n = 6)): 1 (16.7) n (%)
QTc (MAD cohorts): No increase
patients with treatment-emergent adverse events (TEAEs) (MAD cohorts, 50-100 mg BID): 17 (57%)
patients with transient asymptomatic increase in troponin I or hs-troponin T (MAD cohorts, all doses): 7 (23%)
Any AE leading to death, number of patients (%) (Total Compound I (n = 30)): 0 n (%)
Any TEAE leading to permanent treatment discontinuation, number of patients (%) (Total Compound I (n = 30)): 0 n (%)
Any TEAE, number of patients (%) (Total Compound I (n = 30)): 17 (56.7) n (%)
Any serious TEAE, number of patients (%) (Total Compound I (n = 30)): 1 (3.3) n (%)
TEAE: Abdominal discomfort (Total Compound I (n = 30)): 1 (3.3) n (%)
TEAE: Alanine aminotransferase increased (Total Compound I (n = 30)): 2 (6.7) n (%)
TEAE: Anemia (Total Compound I (n = 30)): 1 (3.3) n (%)
TEAE: Application site erosion (Total Compound I (n = 30)): 1 (3.3) n (%)
TEAE: Arthralgia (Total Compound I (n = 30)): 0 n (%)
TEAE: Arthropod bite (Total Compound I (n = 30)): 1 (3.3) n (%)
TEAE: Back pain (Total Compound I (n = 30)): 0 n (%)
TEAE: Blood creatine phosphokinase increased (Total Compound I (n = 30)): 1 (3.3) n (%)
TEAE: Blood creatinine increased (Total Compound I (n = 30)): 1 (3.3) n (%)
TEAE: Cough (Total Compound I (n = 30)): 1 (3.3) n (%)
TEAE: Dermatitis contact (Total Compound I (n = 30)): 2 (6.7) n (%)
TEAE: Dry eye (Total Compound I (n = 30)): 0 n (%)
TEAE: Fatigue (Total Compound I (n = 30)): 2 (6.7) n (%)
TEAE: Fluid overload (Total Compound I (n = 30)): 1 (3.3) n (%)
TEAE: Gingival pain (Total Compound I (n = 30)): 1 (3.3) n (%)
TEAE: Hyperkalemia (Total Compound I (n = 30)): 1 (3.3) n (%)
TEAE: Infusion site erythema (Total Compound I (n = 30)): 1 (3.3) n (%)
TEAE: Nasopharyngitis (Total Compound I (n = 30)): 0 n (%)
TEAE: Rash (Total Compound I (n = 30)): 1 (3.3) n (%)
TEAE: Renal failure (Total Compound I (n = 30)): 0 n (%)
TEAE: Renal impairment (Total Compound I (n = 30)): 0 n (%)
TEAE: Testicular pain (Total Compound I (n = 30)): 0 n (%)
TEAE: Troponin increased (Total Compound I (n = 30)): 2 (6.7) n (%)
TEAE: Ventricular tachycardia (Total Compound I (n = 30)): 2 (6.7) n (%)
hs-troponin T, max change from baseline [2]: (0.041) ng/mL
hs-troponin T, max peak troponin post dose [2]: (0.052) ng/mL
hs-troponin T, median change from baseline [2]: 0.005 ng/mL
hs-troponin T, median peak troponin post dose [2]: 0.020 ng/mL
Troponin I, max change from baseline [3]: (0.87) ng/mL
Troponin I, max peak troponin post dose [3]: (0.88) ng/mL
Troponin I, median change from baseline [3]: 0.010 ng/mL
Troponin I, median peak troponin post dose [3]: 0.025 ng/mL
safety and tolerability (single dose up to 550 mg and 50 to 100 mg BID for 7 days, HFrEF subjects): safe and generally well-tolerated

Source: patent US20220265629A1, “TREATMENT OF SYSTOLIC DYSFUNCTION AND HEART FAILURE WITH REDUCED EJECTION FRACTION WITH THE COMPOUND (R)-4-(1-((3-(DIFLUOROMETHYL)-1-METHYL-1H-PYRAZOL-4-YL)SULFONYL)-1-FLUOROETHYL)-N-(ISOXAZOL-3-YL)PIPERIDINE-1-CARBOXAMIDE” (MyoKardia, Inc., priority 2019, published 2022)
